Measurements as given in patent US20240238232A1, “COMPOSITIONS AND METHODS FOR THE REDUCTION OR TREATMENT OF INSULIN RESISTANCE AND METABOLIC CONDITIONS” (AXCELLA HEALTH INC., priority 2018, published 2024).
Several values for one entry are separate records, joined by “and”; a condition that tells them apart may be missing. Equal values may be shown once.

Tested on: α-smooth muscle actin (αSMA), activated hepatic stellate cells
Assay: α-smooth muscle actin staining of liver sections (activated hepatic stellate cells) in STAM mice, Example 2
Format: in vivo, mouse
Conditions: A-1 1500 mg/kg twice daily, OCA 30 mg/kg once daily
Method: Amino Acid Composition A-1 and Obeticholic acid (6α-ethyl-chenodeoxycholic acid; “OCA”) were tested for their ability to treat NASH in the STAM™ model (Stelic Institute & Co., Tokyo, Japan; Saito K. et al., 2015 Sci Rep 5:12466). Two additional groups of normal C57BL/6 mice fed standard chow and vehicle treated STAM™ mice were included as controls. All animals receiving treatment or vehicle were treated starting at 6 weeks until 9 weeks of age. Compounds were administered via oral gavage, with a dose volume of 10 ml/kg. Amino Acid Composition A-1 was administered twice daily at a dose of 1500 mg/kg, and OCA was administered once daily at a dose of 30 mg/kg.
Amino Acid Composition A-1, OCA and Vehicle (described below) were administered by oral route in a volume of 10 mL/kg. Amino Acid Composition A-1 was solubilized in deionized water to 150 mg/ml (10 X). OCA (Advanced ChemBlocks Inc.) was resuspended in 0.5% methycellulose in water to 3 mg/ml (10 X). Amino Acid Composition A-1 was administered at a dose of 1500 mg/kg twice daily (9 am and 7 pm). OCA was administered at a dose of 30 mg/kg once daily (9 am).
Liver sections of all mice were stained for the marker α-smooth muscle actin (αSMA) to identify activated hepatic stellate cells. Images were quantified using the percent of positively stained area was used as a measure of stellate cell activation. […]

CC[C@H]1[C@@H](O)[C@@H]2[C@H](CC[C@]3(C)[C@@H]([C@H](C)CCC(=O)O)CC[C@@H]23)[C@@]2(C)CC[C@@H](O)C[C@@H]12 [OCA, 6α-ethyl-chenodeoxycholic acid]
Activated hepatic stellate cells (mean positively stained area, α-smooth muscle actin) (STAM mice, oral, 6 to 9 weeks of age): 1.562+/−0.31% and 1.562%
Activated hepatic stellate cells (positively stained area, α-smooth muscle actin): raw data (individual STAM mice): 1.51% and 1.49% (2×) and 1.17% and 1.13% and 2.03% and 1.87% and 1.97% and 1.46%
